Experimental data published in patent US8551978B2 (Theravance, Inc., priority 2009, dated 2013).
Where a name gives a salt, the structure may show the parent alone. Read-outs that look alike come from different tables or passages of the source.

Columns and labels:
[1] = target: hβ2 adrenergic receptor (Homo sapiens (Human), UniProt P07550); assay: Assay for determining adrenergic receptor agonist potency (cAMP Flashplate, HEK-293 cells); format: cell-based; settings: data rounded to nearest 1 nM
Method: The cell monolayer was lifted with 2 mM EDTA in PBS. Cells were pelleted by centrifugation at 1,000 rpm, and cell pellets were either stored frozen at −80° C. or membranes were prepared immediately for use. cAMP assays were performed in a radioimmunoassay format using the Flashplate Adenylyl Cyclase Activation Assay System with [^125I]-cAMP (NEN SMP004, PerkinElmer Life Sciences Inc., Boston, Mass.), according to the manufacturers instructions. […] Cells were rinsed with PBS and detached in dPBS (Dulbecco's Phosphate Buffered Saline, without CaCl2 and MgCl2) containing 2 mM EDTA or Trypsin-EDTA solution (0.05% trypsin/0.53 mM EDTA). After counting cells in Coulter cell counter, cells were pelleted by centrifugation at 1,000 rpm and re-suspended in stimulation buffer containing TBMX (PerkinElmer Kit) pre-warmed to room temperature to a concentration of 1.6×10^6 to 2.8×10^6 cells/mL. About 40,000 to 80,000 cells per well were used in this assay. […] Reactions were incubated for 10 min at 37° C. and stopped by adding 100 μL of cold detection buffer containing [^125I]-cAMP (NEN SMP004, PerkinElmer Life Sciences, Boston, Mass.). […] Data were analyzed by nonlinear regression analysis with the GraphPad Prism Software package (GraphPad Software, Inc., San Diego, Calif.) with the sigmoidal equation. The Cheng-Prusoff equation (Cheng Y, and Prusoff W H., Biochemical Pharmacology, 1973, 22, 23, 3099-108) was used to calculate the EC50 values.

[2] = target: hM3 muscarinic receptor (Homo sapiens (Human), UniProt P20309); assay: Radioligand binding assay for muscarinic receptors ([3H]-NMS displacement, CHO cell membranes)
Method: The cells were grown in a 5% CO2, 37° C. incubator and lifted with 2 mM EDTA in dPBS. Cells were collected by 5 minute centrifugation at 650×g, and cell pellets were either stored frozen at −80° C. or membranes were prepared immediately for use. For membrane preparation, cell pellets were resuspended in lysis buffer and homogenized with a Polytron PT-2100 tissue disrupter (Kinematica AG; 20 seconds×2 bursts). Crude membranes were centrifuged at 40,000×g for 15 minutes at 4° C. The membrane pellet was then resuspended with re-suspension buffer and homogenized again with the Polytron tissue disrupter. The protein concentration of the membrane suspension was determined by the method described in Lowry et al., 1951, […], 193, 265. All membranes were stored frozen in aliquots at −80° C. or used immediately. […] The membranes were briefly homogenized using a Polytron tissue disruptor (10 seconds) prior to assay plate addition. […] The test compounds were initially dissolved to a concentration of 400 μM in dilution buffer and then serially diluted 5× with dilution buffer to final concentrations ranging from 10 μM to […]. The order of addition and volumes added to the assay plates were as follows: 25 μL radioligand, 25 μL diluted test compound, and 50 μL membranes. Assay plates were incubated for 6 hours at 37° C. […] Filter plates were rinsed three times with wash buffer (10 mM HEPES) to remove unbound radioactivity. The plates were then air-dried and 50 μL Microscint-20 liquid scintillation fluid (PerkinElmer, Inc.) were added to each well. The plates were then counted in a PerkinElmer Topcount liquid scintillation counter (PerkinElmer, Inc.). Binding data were analyzed by nonlinear regression analysis with the GraphPad Prism Software package (GraphPad Software, Inc., San Diego, Calif.) using the one-site competition model. […] These summary statistics were then converted back to K; values for data reporting.

[3] = test system: MCh-induced bronchoconstriction; assay: Einthoven assay: bronchoprotection against methacholine (MCh)-induced bronchoconstriction; format: in vivo, rat; settings: rat, 100 μg by inhalation, 24 h after administration
Method: This assay measures the ability of a test compound to provide bronchoprotection against methacholine (MCh)-induced bronchoconstriction in a rat. Male Sprague-Dawley rats (Harlan, Indianapolis, Ind.), weighing between 200 g and 350 g, were used for all studies. Test compound or vehicle (sterile deionized water) were dosed by inhalation (1H) over a 10 min period in a pie shaped inhalation chamber (R+S Molds, San Carlos, Calif.) using 5 mL of dosing solution. […] Rats were dosed with 100 μg of test compound unless otherwise indicated. At predetermined time points, rats were anesthetized with an intraperitoneal (IP) injection of 120 mg/kg inactin (thiobutabarbital). A supplemental dose (40 mg/kg, IP) was administered if the animal responded to physical stimuli (e.g. toe pinch). The surgical site was shaved and a 1-2 cm midline incision of the ventral aspect of the neck was made. The jugular vein was isolated and cannulated with a saline-filled polyethylene catheter (PE-50) to allow IV infusion of MCh. Trachea was dissected free and cannulated with a 14G needle (#NE-014, Small Parts, Miami Lakes, Fla.). After placement of the tracheal cannula, each rat was ventilated using a respirator (Model 683, Harvard Apparatus, Inc., MA) set at a stroke volume of 1 mL/100 g body weight (but not exceeding 2.5 mL volume) and a rate of 90 strokes per minute. A T-connector was placed along the respirator expiratory tubing to allow for measurement of changes in ventilation pressure (VP) using a Biopac transducer that was connected to a Biopac […]) pre-amplifier. Body temperature was maintained at 37° C. using a heating pad. Changes in VP were recorded using the Acknowledge Data Collection Software (Santa Barbara, Calif.). Baseline values were collected for at least 2.5 min. Rats were then challenged with non-cumulative intravenous (IV) infusions of 40 and 80 μg/kg MCh. MCh was infused intravenously for 2.5 minutes from a syringe pump (sp210iw, World Precision Instruments, Inc., Sarasota, Fla.) at a rate of 2 mL/kg/min, with a 2 minute interval between the two doses of MCh. Changes in ventilation pressure (cm H2O) in treated animals are expressed as % inhibition of MCh response relative to control animals. Other bronchoconstrictors, such as histamine and acetylcholine, can be used in place of MCh in this assay. Additionally, guinea pigs can be used instead of rats. […] Inhibition greater than or equal to 30 percent at 24 h is indicative of a long duration of action.

[4] = hM3 Muscarinic Receptor Binding, data rounded to nearest 0.1 nM

Chain of hM3 muscarinic receptor (P20309 whole entry): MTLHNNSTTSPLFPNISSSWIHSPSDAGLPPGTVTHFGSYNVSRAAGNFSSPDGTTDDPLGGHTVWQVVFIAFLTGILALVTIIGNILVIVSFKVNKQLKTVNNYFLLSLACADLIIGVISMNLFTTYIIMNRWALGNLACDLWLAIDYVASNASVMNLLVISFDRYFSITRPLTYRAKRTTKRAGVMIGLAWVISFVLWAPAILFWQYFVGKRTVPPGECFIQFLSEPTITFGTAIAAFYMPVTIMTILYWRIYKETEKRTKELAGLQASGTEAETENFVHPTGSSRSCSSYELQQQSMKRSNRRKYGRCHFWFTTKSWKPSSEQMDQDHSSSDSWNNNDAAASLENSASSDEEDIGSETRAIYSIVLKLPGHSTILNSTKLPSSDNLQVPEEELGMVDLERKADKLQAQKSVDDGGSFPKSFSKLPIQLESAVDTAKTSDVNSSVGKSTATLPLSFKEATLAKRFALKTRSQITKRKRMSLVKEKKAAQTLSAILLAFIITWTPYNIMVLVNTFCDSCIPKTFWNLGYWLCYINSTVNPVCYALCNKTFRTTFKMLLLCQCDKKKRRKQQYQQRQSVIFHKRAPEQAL
Chain of hβ2 adrenergic receptor (P07550 whole entry): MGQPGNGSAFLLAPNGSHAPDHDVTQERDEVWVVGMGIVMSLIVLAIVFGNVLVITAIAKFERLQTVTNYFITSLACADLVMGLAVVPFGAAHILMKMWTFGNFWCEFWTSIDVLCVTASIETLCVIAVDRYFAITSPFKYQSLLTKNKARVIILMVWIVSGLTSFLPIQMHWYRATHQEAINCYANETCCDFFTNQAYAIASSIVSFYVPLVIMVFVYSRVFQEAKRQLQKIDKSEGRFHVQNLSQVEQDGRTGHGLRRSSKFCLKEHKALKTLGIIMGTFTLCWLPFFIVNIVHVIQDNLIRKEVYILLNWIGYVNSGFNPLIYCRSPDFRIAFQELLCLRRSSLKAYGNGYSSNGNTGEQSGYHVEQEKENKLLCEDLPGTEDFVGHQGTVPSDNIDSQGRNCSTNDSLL

Structure (SMILES): CN(CCCC(=O)Nc1ccc(CNC[C@H](O)c2ccc(O)c3[nH]c(=O)ccc23)cc1)C(=O)CCN1CCC(OC(=O)Nc2ccccc2-c2ccccc2)CC1 [Compound I-1, Biphenyl-2-ylcarbamic Acid 1-(2-{[3-(4-{[(R)-2-Hydroxy-2-(8-hydroxy-2-oxo-1,2-dihydroquinolin-5-yl)ethylamino]methyl}-phenylcarbamoyl)propyl]methylcarbamoyl}ethyl)piperidin-4-yl Ester Ditrifluoroacetic Acid Salt]
- EC50 [1]: 3 nM
- Ki [2, 4]: 0.1 nM

Structure (SMILES): COc1ccc(NC(=O)CCCN(C)C(=O)CCN2CCC(OC(=O)Nc3ccccc3-c3ccccc3)CC2)cc1CCNC[C@H](O)c1ccc(O)c2[nH]c(=O)ccc12 [Compound I-9]
- EC50 [1]: 6 nM
- Ki [2]: 0.1 nM

Structure (SMILES): CN(C(=O)CCN1CCC(OC(=O)Nc2ccccc2-c2ccccc2)CC1)c1cccc(C(=O)Nc2ccc(CNC[C@H](O)c3ccc(O)c4[nH]c(=O)ccc34)cc2)c1 [Compound I-25, Ditrifluoroacetic Acid]
- EC50 [1]: 1 nM
- Ki [2]: 0.1 nM

Structure (SMILES): Cc1ccc(C(=O)Nc2ccc(CCNC[C@H](O)c3ccc(O)c4[nH]c(=O)ccc34)cc2)cc1N(C)C(=O)CCN1CCC(OC(=O)Nc2ccccc2-c2ccccc2)CC1 [Compound I-35]
- Broncho. at 24 h [3]: Yes (Bronchoprotective effect present at 24 h, e.g., ≧30% inhibition of the MCh response at 24 h in the rat Einthoven assay (100 μg))

Structure (SMILES): CC(Cc1ccc(NC(=O)c2cccc(N(C)C(=O)CCN3CCC(OC(=O)Nc4ccccc4-c4ccccc4)CC3)c2)cc1)NC[C@H](O)c1ccc(O)c2[nH]c(=O)ccc12 (stereo partly drawn) [Compound I-40]
- inhibition in vivo at 0.1 mg ([3]; inhaled or nasal, read-out: Broncho. at 24 h): > 30%

Structure (SMILES): C[C@H](Cc1ccc(NC(=O)c2cccc(N(C)C(=O)CCN3CCC(OC(=O)Nc4ccccc4-c4ccccc4)CC3)c2)cc1)NC[C@H](O)c1ccc(O)c2[nH]c(=O)ccc12 [Compound I-42]
- Broncho. at 24 h [3]: No

Structure (SMILES): Cc1ccc(C(=O)NCc2ccc(CC(C)NC[C@H](O)c3ccc(O)c4[nH]c(=O)ccc34)cc2)cc1N(C)C(=O)CCN1CCC(OC(=O)Nc2ccccc2-c2ccccc2)CC1 (stereo partly drawn) [Compound I-47]
- EC50 [1]: 3 nM
- Ki [2, 4]: 0.2 nM

Structure (SMILES): COc1ccc(CC(=O)Nc2cccc(N(C)C(=O)CCN3CCC(OC(=O)Nc4ccccc4-c4ccccc4)CC3)c2)cc1CC(C)NC[C@H](O)c1ccc(O)c2[nH]c(=O)ccc12 (stereo partly drawn) [Compound I-54]
- EC50 [1]: 2 nM
- Ki [2, 4]: 0.2 nM

Structure (SMILES): C[C@H](Cc1ccc(CCNC(=O)c2ccc(N(C)C(=O)CCN3CCC(OC(=O)Nc4ccccc4-c4ccccc4)CC3)cc2)cc1)NC[C@H](O)c1ccc(O)c2[nH]c(=O)ccc12 [Compound I-57]
- EC50 [1]: 1 nM
- Ki [2]: 0.1 nM

Structure (SMILES): C[C@@H](Cc1ccc(CCNC(=O)c2ccc(N(C)C(=O)CCN3CCC(OC(=O)Nc4ccccc4-c4ccccc4)CC3)cc2)cc1)NC[C@H](O)c1ccc(O)c2[nH]c(=O)ccc12 [Compound I-58]
- EC50 [1]: 1 nM
- Ki [2]: 0.2 nM

Structure (SMILES): CN(C(=O)CCN1CCC(OC(=O)Nc2ccccc2-c2ccccc2)CC1)c1cccc(CC(=O)Nc2ccc(CNC[C@H](O)c3ccc(O)c4[nH]c(=O)ccc34)cc2)c1 [Compound I-59]
- EC50 [1]: 3 nM
- Ki [2]: 0.1 nM

Structure (SMILES): Cc1cc(NC(=O)Cc2cccc(N(C)C(=O)CCN3CCC(OC(=O)Nc4ccccc4-c4ccccc4)CC3)c2)c(C)cc1CNC[C@H](O)c1ccc(O)c2[nH]c(=O)ccc12 [Compound I-60]
- EC50 [1]: 3 nM
- Ki [2]: 0.1 nM

Structure (SMILES): CN(C(=O)CCN1CCC(OC(=O)Nc2ccccc2-c2ccccc2)CC1)c1cccc(CC(=O)Nc2ccc(CCNC[C@H](O)c3ccc(O)c4[nH]c(=O)ccc34)cc2)c1 [Compound I-63]
- EC50 [1]: 1 nM
- Ki [2]: 0.1 nM

Structure (SMILES): Cc1ccc(CNC(=O)Cc2ccc(N(C)C(=O)CCN3CCC(OC(=O)Nc4ccccc4-c4ccccc4)CC3)cc2)cc1CC(C)NC[C@H](O)c1ccc(O)c2[nH]c(=O)ccc12 (stereo partly drawn) [Compound I-70]
- EC50 [1]: 1 nM
- Ki [2, 4]: 0.3 nM

Structure (SMILES): Cc1c(CNC(=O)Cc2ccc(N(C)C(=O)CCN3CCC(OC(=O)Nc4ccccc4-c4ccccc4)CC3)cc2)cccc1CC(C)NC[C@H](O)c1ccc(O)c2[nH]c(=O)ccc12 (stereo partly drawn) [Compound I-71]
- EC50 [1]: 1 nM
- Ki [2]: 0.1 nM

Structure (SMILES): COc1ccc(CNC(=O)Cc2ccc(N(C)C(=O)CCN3CCC(OC(=O)Nc4ccccc4-c4ccccc4)CC3)cc2)cc1CC(C)NC[C@H](O)c1ccc(O)c2[nH]c(=O)ccc12 (stereo partly drawn) [Compound I-72]
- EC50 [1]: 4 nM
- Ki [2, 4]: 0.4 nM

Structure (SMILES): CN(C(=O)CCN1CCC(OC(=O)Nc2ccccc2-c2ccccc2)CC1)c1ccc(CNC(=O)Cc2cccc(CNC[C@H](O)c3ccc(O)c4[nH]c(=O)ccc34)c2)cc1 [Compound I-74]
- EC50 [1]: 2 nM
- Ki [2, 4]: 0.3 nM

Structure (SMILES): CN(C(=O)CCN1CCC(OC(=O)Nc2ccccc2-c2ccccc2)CC1)c1ccc(CNC(=O)Cc2ccc(CNC[C@H](O)c3ccc(O)c4[nH]c(=O)ccc34)cc2)cc1 [Compound I-75]
- EC50 [1]: 2 nM
- Ki [2]: 0.2 nM

Structure (SMILES): CN(C(=O)CCN1CCC(OC(=O)Nc2ccccc2-c2ccccc2)CC1)c1ccc(CNC(=O)Cc2cccc(CCNC[C@H](O)c3ccc(O)c4[nH]c(=O)ccc34)c2)cc1 [Compound I-76]
- EC50 [1]: 1 nM
- Ki [2, 4]: 0.3 nM

Structure (SMILES): CC(Cc1cc(CC(=O)NCc2ccc(N(C)C(=O)CCN3CCC(OC(=O)Nc4ccccc4-c4ccccc4)CC3)cc2)ccc1F)NC[C@H](O)c1ccc(O)c2[nH]c(=O)ccc12 (stereo partly drawn) [Compound I-84]
- EC50 [1]: 1 nM
- Ki [2, 4]: 0.1 nM

Structure (SMILES): C[C@H](Cc1ccc(CCNC(=O)Cc2ccc(N(C)C(=O)CCN3CCC(OC(=O)Nc4ccccc4-c4ccccc4)CC3)cc2)cc1)NC[C@H](O)c1ccc(O)c2[nH]c(=O)ccc12 [Compound I-90]
- EC50 [1]: 1 nM
- Ki [2]: 0.1 nM

Structure (SMILES): C[C@@H](Cc1cccc(CCC(=O)NCc2ccc(N(C)C(=O)CCN3CCC(OC(=O)Nc4ccccc4-c4ccccc4)CC3)cc2)c1)NC[C@H](O)c1ccc(O)c2[nH]c(=O)ccc12 [Compound I-93]
- EC50 [1]: 11 nM
- Ki [2]: 0.8 nM

Structure (SMILES): CN(C(=O)CCN1CCC(OC(=O)Nc2ccccc2-c2ccccc2)CC1)c1ccc(CNC(=O)CCc2cccc(CNC[C@H](O)c3ccc(O)c4[nH]c(=O)ccc34)c2)cc1 [Compound I-96]
- EC50 [1]: 3 nM
